Key:
Assay in all cases: relative viability (nuclei count vs DMSO), 5 days (fraction); higher = more cells survive
GSK126 + Luminespib = compound: CC[C@H](C)N1C=C(C2=C(C=C(C=C21)C3=CN=C(C=C3)N4CCNCC4)C(=O)NCC5=C(C=C(NC5=O)C)C)C [GSK126] + CCNC(=O)c1noc(-c2cc(C(C)C)c(O)cc2O)c1-c1ccc(CN2CCOCC2)cc1 [Luminespib] (partner 0.01 µM)
Summary of the method: (§1)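 Relative viability equals treated-well nuclei counts divided by vehicle-well nuclei counts. Counts came from 4× images of lung cancer cell lines grown in 1536-well plates for 5 days after pin-tool dosing on the day after seeding. Dosing used one drug alone or a fixed anchor-drug dose plus five library-drug doses (not always all listed) in √10 steps, and values are medians of duplicate plates.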

MLN4924 + Vorinostat = compound: NS(=O)(=O)OC[C@@H]1C[C@@H](n2ccc3c(N[C@H]4CCc5ccccc54)ncnc32)C[C@@H]1O [MLN4924] + O=C(CCCCCCC(=O)Nc1ccccc1)NO [Vorinostat] (partner 1 µM)
Summary of the method: as §1

GSK126 + Decitabine = compound: CC[C@H](C)N1C=C(C2=C(C=C(C=C21)C3=CN=C(C=C3)N4CCNCC4)C(=O)NCC5=C(C=C(NC5=O)C)C)C [GSK126] + Nc1ncn([C@H]2C[C@H](O)[C@@H](CO)O2)c(=O)n1 [Decitabine] (partner 2 µM)
Summary of the method: as §1

MLN4924 + Pictilisib = compound: NS(=O)(=O)OC[C@@H]1C[C@@H](n2ccc3c(N[C@H]4CCc5ccccc54)ncnc32)C[C@@H]1O [MLN4924] + CS(=O)(=O)N1CCN(Cc2cc3nc(-c4cccc5[nH]ncc45)nc(N4CCOCC4)c3s2)CC1 [Pictilisib] (partner 1 µM)
Summary of the method: as §1

Question: Which results are given for UMC-11?
Answer: relative viability (GSK126 + Luminespib; first compound 0.08 µM): 1.19; relative viability (GSK126 + Luminespib; first compound 0.253 µM): 1.07; relative viability (GSK126 + Luminespib; first compound 0.8 µM): 1.04; relative viability (GSK126 + Luminespib; first compound 2.53 µM): 1.07; relative viability (GSK126 + Luminespib; first compound 8 µM): 1.31; relative viability (MLN4924 + Vorinostat; first compound 0.04 µM): 0.173; relative viability (MLN4924 + Vorinostat; first compound 0.1265 µM): 0.169; relative viability (MLN4924 + Vorinostat; first compound 0.4 µM): 0.19; relative viability (MLN4924 + Vorinostat; first compound 1.265 µM): 0.144; relative viability (MLN4924 + Vorinostat; first compound 4 µM): 0.116; relative viability (GSK126 + Decitabine; first compound 0.08 µM): 0.695; relative viability (GSK126 + Decitabine; first compound 0.253 µM): 0.557; relative viability (GSK126 + Decitabine; first compound 0.8 µM): 0.626; relative viability (GSK126 + Decitabine; first compound 2.53 µM): 0.604; relative viability (GSK126 + Decitabine; first compound 8 µM): 0.658; relative viability (MLN4924 + Pictilisib; first compound 0.04 µM): 0.593; relative viability (MLN4924 + Pictilisib; first compound 0.1265 µM): 0.357; relative viability (MLN4924 + Pictilisib; first compound 0.4 µM): 0.267; relative viability (MLN4924 + Pictilisib; first compound 1.265 µM): 0.14; relative viability (MLN4924 + Pictilisib; first compound 4 µM): 0.14

— the supplement of paper PMC10307832
